Experimental data from patent US9079913B2, “Spiro-oxindole MDM2 antagonists” (The Regents of the University of Michigan, priority 2009, dated 2015).
Entries after “also recorded” stand apart in the source; their conditions may differ. Read-outs that look alike come from different tables or passages of the source.

Legend:
[1] = In vitro microsomal stability, rat; type: in vitro ADME
[2] = tested on: Isogenic HCT-116 colon cancer cell lines; assay: cells; type: cell-based; conditions: Homo sapiens;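 also: cells grown in 96-well plates in McCoy's 5A medium with 10% FBS, exposed to compound for 4 days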
Experimental: Cells were seeded in 96-well flat bottom cell culture plates at a density of 2−3×10^3 cells/well with compounds and incubated for 4 days.

[3] = In vitro microsomal stability, human; type: in vitro ADME
SJSA-1 xenograft tumors = assay: In vivo efficacy, SJSA-1 xenograft model (tumor volume); parameters: species or system C.B-17 SCID mice; conditions: for % Tumor Growth Inhib. T/C Control 750 mm^3 D29: Exp. No. 3, SJSA-1 xenograft
Experimental: SJSA-1 tumor cells were harvested with Trypsin (0.05%)-EDTA (0.53 mM) (GIBCO™, Invitrogen Corp.), growth medium added and cells placed on ice. A cell sample was mixed 1:1 with Trypan Blue (GIBCO™, Invitrogen Corp.) and counted on a hemocytometer to determine the number of live/dead cells. Cells were washed once with 1×PBS (GIBCO™, Invitrogen Corp.) and resuspended in PBS. For Matrigel injections, after washing in PBS, cells are resuspended in an ice cold mixture of 1:1 PBS and Matrigel (BD Biosciences, Invitrogen Corp.) for a final Matrigel protein concentration of 5 mg/ml. SJSA-1 tumors were inoculated into C.B-17 SCID mice at 5×10^6 cells in 0.1 ml with Matrigel. Cells were injected s.c. into the flank region of each mouse using a 27 gauge needle.
The size of tumors growing in the mice was measured in two dimensions using calipers. Tumor volume (mm^3)=(A×B2)/2 where A and B are the tumor length and width (in mm), respectively. During treatment, tumor volume and body weight was measured three times a week. […] Mice were kept for an additional 60 days for further observation of tumor growth and toxicity.

[4] = tested on: cancer cell lines with wild-type p53 / mutated or deleted p53 (ATCC); assay: Cell growth assay (WST-8), other cancer cell lines; type: cell-based; conditions: for IC50: Homo sapiens
[5] = Pharmacokinetic studies in rats; type: in vivo, rat; conditions: for CLz / Vd: rat, IV, 5 mg/kg, plasma, parent compound; for Vd: iv, read-out: Vz
Experimental: Pharmacokinetic studies on MDM2 inhibitors were carried out in rat. For comparison, the MDM2 inhibitor, AT-219, was also studied.

[6] = Animal weight in SJSA-1 xenograft studies; type: in vivo, C.B-17 SCID mice; conditions: SJSA-1 xenograft mice
Experimental: The size of tumors growing in the mice was measured in two dimensions using calipers. Tumor volume (mm^3)=(A×B2)/2 where A and B are the tumor length and width (in mm), respectively. During treatment, tumor volume and body weight was measured three times a week. After the treatment was stopped, tumor volume (FIGS. 7, 9, 11, and 36) and body weight (FIGS. 8, 10, 12, and 37) was measured at least once a week. Mice were kept for an additional 60 days for further observation of tumor growth and toxicity.
Before treatment began, tumors were allowed to grow to 60-140 mm^3 in volume, at which point the blood vessel supplies to the tumor should have been established. Mice with tumors within acceptable size range were randomized into treatment groups of 8 mice for experimental compounds and 10 mice for the Control group. Experimental compounds were given orally, once per day for 2-3 weeks. The Control group received vehicle alone (10% PEG 400: 3% Cremophor: 87% PBS).

[7] = LNCaP, read-out: LNCAP (p53 wild-type) IC50
[8] = SJSA-1, read-out: SJSA-1 (p53 wild-type) IC50

CC(C)(C)C[C@H]1N[C@@H](C(=O)N[C@H]2C[C@@](C)(O)C2)[C@H](c2cccc(Cl)c2F)[C@@]12C(=O)Nc1cc(Cl)ccc12 [MI-519-64]
% of compound remaining when incubated in rat liver microsomes with NADPH ([1]; 0 min): 100% | % of compound remaining when incubated in rat liver microsomes with NADPH ([1]; 5 min): 71.95% | % of compound remaining when incubated in rat liver microsomes with NADPH ([1]; 10 min): 64.86% | % of compound remaining when incubated in rat liver microsomes with NADPH ([1]; 15 min): 48.47% | % of compound remaining when incubated in rat liver microsomes with NADPH ([1]; 30 min): 43.38% | % of compound remaining when incubated in rat liver microsomes with NADPH ([1]; 45 min): 41.19% | % of compound remaining when incubated in rat liver microsomes with NADPH ([1]; 60 min): 43.03% | IC50 ([2]; HCT-116, read-out: HCT-116 (p53-/-) IC50): > 10000 nM | IC50 ([2]; HCT-116, read-out: HCT-116 (p53 wild-type) IC50): < 1000 nM | % of compound remaining when incubated in human liver microsomes with NADPH ([3]; 0 min): 100% | % of compound remaining when incubated in human liver microsomes with NADPH ([3]; 5 min): 83.66% | % of compound remaining when incubated in human liver microsomes with NADPH ([3]; 10 min): 80.61% | % of compound remaining when incubated in human liver microsomes with NADPH ([3]; 15 min): 65.86% | % of compound remaining when incubated in human liver microsomes with NADPH ([3]; 30 min): 61.26% | % of compound remaining when incubated in human liver microsomes with NADPH ([3]; 45 min): 55.9% | % of compound remaining when incubated in human liver microsomes with NADPH ([3]; 60 min): 53.21% | % Tumor Growth Inhib. T/C Control 750 mm^3 D29 (SJSA-1 xenograft tumors; PO 30 mg/kg): 20.7% | % Tumor Growth Inhib. T/C Control 750 mm^3 D29 (SJSA-1 xenograft tumors; PO 100 mg/kg): 5.3% | cell growth inhibition (in words) [4]: more potent than its epimer MI-519-65; also recorded: effectively inhibit cancer cell growth | IC50 [4, 7]: < 1000 nM | IC50 [4, 8]: < 1000 nM | CLz [5]: 30 mL/min/kg | Vd [5]: 9 L/kg | weight loss in the animals (in words) [6]: without significant weight loss

CC(C)(C)C[C@H]1N[C@@H](C(=O)NC2CCC(O)CC2)[C@H](c2cccc(Cl)c2F)[C@@]12C(=O)Nc1cc(Cl)ccc12 (stereo partly shown) [MI-773]
% of compound remaining when incubated in rat liver microsomes with NADPH ([1]; rat liver microsomes, NADPH, 0 min): 100.00% | % of compound remaining when incubated in rat liver microsomes with NADPH ([1]; rat liver microsomes, NADPH, 5 min): 81.32% | % of compound remaining when incubated in rat liver microsomes with NADPH ([1]; rat liver microsomes, NADPH, 10 min): 60.00% | % of compound remaining when incubated in rat liver microsomes with NADPH ([1]; rat liver microsomes, NADPH, 15 min): 56.58% | % of compound remaining when incubated in rat liver microsomes with NADPH ([1]; rat liver microsomes, NADPH, 30 min): 46.11% | % of compound remaining when incubated in rat liver microsomes with NADPH ([1]; rat liver microsomes, NADPH, 45 min): 41.18% | % of compound remaining when incubated in rat liver microsomes with NADPH ([1]; rat liver microsomes, NADPH, 60 min): 33.26% | half-life ([1]; rat, liver microsomes, rat liver microsomes with NADPH): 17.3 min | IC50 ([2]; HCT-116, read-out: HCT-116 (p53-/-) IC50, Table 19A, HCT-116 p53-/-, cell growth): > 10000 nM | IC50 ([2]; HCT-116, read-out: HCT-116 (p53 wild-type) IC50, Table 19A, HCT-116 p53 wild-type, cell growth): < 1000 nM | microsomal stability (in words) ([3]; human liver microsomes): more stable than MI-219 | % of compound remaining when incubated in human liver microsomes with NADPH ([3]; human liver microsomes, NADPH, 0 min): 100.00% | % of compound remaining when incubated in human liver microsomes with NADPH ([3]; human liver microsomes, NADPH, 5 min): 83.70% | % of compound remaining when incubated in human liver microsomes with NADPH ([3]; human liver microsomes, NADPH, 10 min): 82.97% | % of compound remaining when incubated in human liver microsomes with NADPH ([3]; human liver microsomes, NADPH, 15 min): 69.38% | % of compound remaining when incubated in human liver microsomes with NADPH ([3]; human liver microsomes, NADPH, 30 min): 52.36% | % of compound remaining when incubated in human liver microsomes with NADPH ([3]; human liver microsomes, NADPH, 45 min): 42.57% | % of compound remaining when incubated in human liver microsomes with NADPH ([3]; human liver microsomes, NADPH, 60 min): 28.77% | half-life ([3]; human, liver microsomes, human liver microsomes with NADPH): 31.5 min | % Tumor Growth Inhib. T/C Control 750 mm^3 D24 (SJSA-1 xenograft tumors; Exp. No. 2, SJSA-1 xenograft, PO 100 mg/kg, D24): 3.2% | % Tumor Growth Inhib. T/C Control 750 mm^3 D29 (SJSA-1 xenograft tumors; PO 30 mg/kg): 24.3% | % Tumor Growth Inhib. T/C Control 750 mm^3 D29 (SJSA-1 xenograft tumors; PO 100 mg/kg): 1.2% | in vivo efficacy (in words) (SJSA-1 xenograft tumors; SJSA-1 xenograft, oral once per day 2-3 weeks): good in vivo efficacy | IC50 [4, 7]: < 1000 nM | IC50 ([4]; PC-3, read-out: PC-3 (deleted p53) IC50): > 10000 nM | IC50 [4, 8]: < 1000 nM | oral bioavailability / oral pharmacokinetics in rats (in words) ([5]; oral dosing, rats): good oral bioavailability; also recorded: high oral bioavailability | CLz [5]: 16.7 mL/min/kg | Vd [5]: 3 L/kg | pharmacokinetic profile (in words) ([5]; rats, intravenous and oral routes of dosing): improved PK parameters over MI-219 | weight loss in the animals (in words) [6]: without significant weight loss
